Experimental data: article PMC9768162, “Synthesis of macrocyclic nucleoside antibacterials and their interactions with MraY” (Nature Communications, 2022)
Values after ≈ are worked out from the molar mass of the structure shown. Values joined by “and” are separate entries in the source; they are usually repeats but may differ in a detail not shown here. Equal entries are not always repeated.

Assays:
E. coli = assay: Antibacterial activity, MIC by microdilution broth method (CLSI); conditions: E. coli ATCC 25922; CA-MHB, 37 °C, 20 h
M. avium = assay: MIC in 7H9 liquid medium, 2 weeks; assay type: cell-based; conditions: Mycobacterium avium, ATCC25291, 336 h, M. avium ATCC 25291, 37 °C, minimum concentration inhibiting at least 50% of growth
[1] = biological target: T1, MraYSA (S. aureus MraY enzyme) (Staphylococcus aureus, UniProt Q2FZ93); assay: Fluorescence-based MraY inhibitory assay (dansylated Park's nucleotide); conditions: for MraYSA activity, source data of Fig. 7b, average: average of n=1-3
T1 sequence (Q2FZ93 1-321): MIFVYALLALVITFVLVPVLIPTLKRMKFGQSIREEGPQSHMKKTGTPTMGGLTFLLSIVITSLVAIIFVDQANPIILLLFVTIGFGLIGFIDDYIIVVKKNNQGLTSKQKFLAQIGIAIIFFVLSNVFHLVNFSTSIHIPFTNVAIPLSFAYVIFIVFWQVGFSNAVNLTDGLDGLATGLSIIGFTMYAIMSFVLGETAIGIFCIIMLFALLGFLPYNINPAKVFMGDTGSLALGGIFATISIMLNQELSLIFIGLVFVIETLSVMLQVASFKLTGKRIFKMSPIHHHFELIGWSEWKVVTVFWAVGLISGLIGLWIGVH

E. faecium = assay: Antibacterial activity, MIC by microdilution broth method (CLSI); assay type: cell-based, Enterococcus faecium; conditions: Enterococcus faecium, ATCC35667, 20 h, E. faecium ATCC 35667; CA-MHB, 37 °C, 20 h; read-out: MIC
Gram-positive bacteria = assay: Antibacterial activity against Gram-positive bacteria; assay type: cell-based
A. baumannii = assay: Antibacterial activity, MIC by microdilution broth method (CLSI); assay type: cell-based; conditions: Acinetobacter baumannii, ATCC19606; A. baumannii ATCC 19606; CA-MHB, 37 °C, 20 h
E. cloacae = assay: as above; assay type: cell-based; conditions: Enterobacter cloacae, ATCC13047; E. cloacae ATCC 13047; CA-MHB, 37 °C, 20 h
[2] = tested on: Gram-negative bacterial strains; assay: Antibacterial activity against Gram-negative bacteria; assay type: cell-based; conditions: four Gram-negative bacterial strains examined
P. aeruginosa = assay: Antibacterial activity, MIC by microdilution broth method (CLSI); assay type: cell-based; conditions: Pseudomonas aeruginosa, ATCC27853; P. aeruginosa ATCC 27853; CA-MHB, 37 °C, 20 h
MraYAA = MraYAA (Aquifex aeolicus, UniProt O66465); assay: UMP-Glo assay; conditions: for Normalized (UMP / Lipid I formed minus no-enzyme average), source data of Fig. 7a: replicates 1-3
MraYAA, sequence (O66465 whole entry): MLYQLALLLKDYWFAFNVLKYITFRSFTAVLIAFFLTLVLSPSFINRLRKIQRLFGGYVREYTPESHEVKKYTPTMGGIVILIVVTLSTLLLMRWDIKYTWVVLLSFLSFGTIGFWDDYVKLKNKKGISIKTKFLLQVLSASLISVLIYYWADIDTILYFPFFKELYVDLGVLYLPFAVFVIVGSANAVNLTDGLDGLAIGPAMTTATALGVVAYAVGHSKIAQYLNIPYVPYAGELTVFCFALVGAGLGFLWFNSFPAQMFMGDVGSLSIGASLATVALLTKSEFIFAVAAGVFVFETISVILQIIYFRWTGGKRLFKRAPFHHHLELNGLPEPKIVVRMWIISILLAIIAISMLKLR

M. tuberculosis = assay: MIC in 7H9 liquid medium, 2 weeks; assay type: cell-based; conditions: Mycobacterium tuberculosis, 336 h, M. tuberculosis H37Rv, 37 °C, minimum concentration inhibiting at least 50% of growth
S. aureus = assay: Antibacterial activity, MIC by microdilution broth method (CLSI); assay type: cell-based, Staphylococcus aureus; conditions: Staphylococcus aureus, ATCC29213, 20 h, S. aureus ATCC 29213; CA-MHB, 37 °C, 20 h
K. pneumoniae = assay: as above; assay type: cell-based; conditions: Klebsiella pneumoniae, ATCC13883; K. pneumoniae ATCC 13883; CA-MHB, 37 °C, 20 h

CCCCCCCCCCCCCCCC(=O)O[C@@H]1[C@@H]2CN(C[C@@H]1O)[C@H](C(=O)O)[C@@H]([C@H]1O[C@@H](n3ccc(=O)[nH]c3=O)[C@H](O)[C@@H]1O)O[C@@H]1O[C@H](CN2)[C@@H](O)[C@H]1O [SPM-1]
MIC (E. coli): >64 µg/mL
MIC (M. avium): 2 µg/mL (≈ 2.55 µM)
IC50 [1]: 9.1 nM
MraYSA activity, source data of Fig. 7b, average ([1]; compound 0.0001 µM): 94.43
MraYSA activity, source data of Fig. 7b, average ([1]; compound 0.001 µM): 84.3881
MraYSA activity, source data of Fig. 7b, average ([1]; compound 0.01 µM): 49.3175
MraYSA activity, source data of Fig. 7b, average ([1]; compound 0.1 µM): 11.924
MraYSA activity, source data of Fig. 7b, average ([1]; compound 1 µM): 3.067
MraYSA activity, source data of Fig. 7b, average ([1]; compound 10 µM): 2.786
MraYSA activity, source data of Fig. 7b, average ([1]; compound 100 µM): 7.015
MIC (E. faecium): 4 µg/mL (≈ 5.1 µM)
MIC (Gram-positive bacteria; range over S. aureus and E. faecium of Table 1, read-out: MIC against the Gram-positive pathogens): 2 to 4 µg/mL (≈ 2.55 to 5.1 µM)
antibacterial activity against Gram-positive bacteria (Gram-positive bacteria; such as S. aureus and E. faecium): active
MIC (A. baumannii): > 64 µg/mL
MIC (E. cloacae): > 64 µg/mL
antibacterial activity against Gram-negative bacterial strains [2]: inactive
MIC (P. aeruginosa): > 64 µg/mL
IC50 (MraYAA): 170 nM
Normalized (UMP / Lipid I formed minus no-enzyme average), source data of Fig. 7a (MraYAA; inhibitor concentration 0.025): 27.4002 and 27.6068 and 25.0152
Normalized (UMP / Lipid I formed minus no-enzyme average), source data of Fig. 7a (MraYAA; inhibitor concentration 0.05): 23.6062 and 21.9589 and 21.8339
Normalized (UMP / Lipid I formed minus no-enzyme average), source data of Fig. 7a (MraYAA; inhibitor concentration 0.1): 22.1835 and 21.2199 and 20.7564
Normalized (UMP / Lipid I formed minus no-enzyme average), source data of Fig. 7a (MraYAA; inhibitor concentration 0.2): 13.2781 and 11.6659 and 13.2137
Normalized (UMP / Lipid I formed minus no-enzyme average), source data of Fig. 7a (MraYAA; inhibitor concentration 0.3): 8.4302 and 9.0267 and 7.4669
Normalized (UMP / Lipid I formed minus no-enzyme average), source data of Fig. 7a (MraYAA; inhibitor concentration 0.4): 6.5859 and 6.3347 and 6.5433
Normalized (UMP / Lipid I formed minus no-enzyme average), source data of Fig. 7a (MraYAA; inhibitor concentration 0.8): 3.6877 and 2.5343 and 3.6699
Normalized (UMP / Lipid I formed minus no-enzyme average), source data of Fig. 7a (MraYAA; inhibitor concentration 1): 4.5308 and 4.5928 and 4.1831
Normalized (UMP / Lipid I formed minus no-enzyme average), source data of Fig. 7a (MraYAA; inhibitor concentration 5): 0.1572 and 0.6868 and 0.8992
Normalized (UMP / Lipid I formed minus no-enzyme average), source data of Fig. 7a (MraYAA; inhibitor concentration 50): 0.4734 and -0.0522 and 0.3348
MIC (M. tuberculosis): 16 µg/mL (≈ 20.4 µM)
MIC (S. aureus): 2 µg/mL (≈ 2.55 µM)
MIC (K. pneumoniae): > 64 µg/mL
